Patent US20100069385A1, “LIQUID FORMULATIONS OF PHOSPHOLIPASE ENZYME INHIBITORS” (WYETH, priority 2006, published 2010)

What was measured:
[1] = test system: rat carrageenan-induced paw edema (CPE); assay: Rat carrageenan-induced paw edema (CPE) study; assay type: in vivo
Method: Data from a rat carrageenan-induced paw edema (CPE) study indicated the minimum efficacious exposure of 4-(3-{5-chloro-1-(diphenylmethyl)-2-[2-({[2-(trifluoromethyl)benzyl]sulfonyl}amino)ethyl]-1H-indol-3-yl}propyl)benzoic acid was 1360 ng*hr/ml.

[2] = Solubility at room temperature in water, acid and basic conditions; assay type: physicochemical; details: free acid, below HPLC detection limit, read-out: intrinsic solubility of the free acid
Method: The solubility of 4-(3-{5-chloro-1-(diphenylmethyl)-2-[2-({[2-(trifluoromethyl)benzyl]sulfonyl}amino)ethyl]-1H-indol-3-yl}propyl)benzoic acid was measured at room temperature in water, acid and basic conditions.

solubility [2]: < 0.031 µg/mL
Structure (SMILES): O=C(O)c1ccc(CCCc2c(CCNS(=O)(=O)Cc3ccccc3C(F)(F)F)n(C(c3ccccc3)c3ccccc3)c3ccc(Cl)cc23)cc1 [4-(3-{5-chloro-1-(diphenylmethyl)-2-[2-({[2-(trifluoromethyl)benzyl]sulfonyl}amino)ethyl]-1H-indol-3-yl}propyl)benzoic acid]
minimum efficacious exposure [1]: 1360 ng·h/mL
